Key:
Conditions in all cases: exposure time: 72 h
[1] = tested on: FT3469 (normal neural stem cell line); assay: phenotypic distance (Euclidean, principal components) from DMSO controls (arbitrary units); higher = stronger morphological change
[2] = tested on: E28 (patient-derived glioblastoma stem cells of classical subtype); assay: as above
[3] = tested on: E13 (patient-derived glioblastoma stem cells of classical subtype); assay: as above
[4] = tested on: E34 (patient-derived glioblastoma stem cells of proneural subtype); assay: as above
[5] = tested on: E57 (patient-derived glioblastoma stem cells of mesenchymal subtype); assay: as above
[6] = tested on: E21 (patient-derived glioblastoma stem cells of mesenchymal subtype); assay: as above
[7] = tested on: E31 (patient-derived glioblastoma stem cells of proneural subtype); assay: as above
[8] = tested on: FT3469; assay: surviving fraction (nuclei count normalised to DMSO); higher = more cells surviving (less toxic)
[9] = tested on: E28; assay: as above
[10] = tested on: E13; assay: as above
[11] = tested on: E34; assay: as above
[12] = tested on: E57; assay: as above
[13] = tested on: E21; assay: as above
[14] = tested on: E31; assay: as above
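Throughout, for phenotypic distance (Euclidean, principal components) from DMSO controls: cell Painting imaging in 384-well plates, CellProfiler features reduced to at least 20 principal components, Euclidean distance versus same-plate DMSO vehicle wells (0.1% v/v), median over six images per well.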
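Throughout, for surviving fraction (nuclei count normalised to DMSO): nuclei counted by high-content imaging of Hoechst-stained cells in laminin-coated 384-well plates, relative to 0.1% DMSO vehicle wells, with staurosporine as cell-death control.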

CC[C@@H]1C(=O)N(C)c2cnc(Nc3ccc(C(=O)N[C@H]4CC[C@H](N5CCN(CC6CC6)CC5)CC4)cc3OC)nc2N1C(C)C [Volasertib]
Conditions	phenotypic distance	surviving fraction
[1], 4.1 nM	2.22	–
[1], 12.3 nM	1.25	–
[1], 37 nM	1.74	–
[1], 111.1 nM	2.57	–
[1], 333.3 nM	2.83	–
[1], 1000 nM	3.25	–
[1], 3000 nM	2.99	–
[2], 4.1 nM	1.97	–
[2], 12.3 nM	1.64	–
[2], 37 nM	1.4	–
[2], 111.1 nM	2.98	–
[2], 333.3 nM	2.89	–
[2], 1000 nM	3.11	–
[2], 3000 nM	4.22	–
[3], 4.1 nM	4.53	–
[3], 12.3 nM	4.86	–
[3], 37 nM	5.16	–
[3], 111.1 nM	4.97	–
[3], 333.3 nM	4.79	–
[3], 1000 nM	5.82	–
[3], 3000 nM	5.69	–
[4], 4.1 nM	1.64	–
[4], 12.3 nM	1.44	–
[4], 37 nM	2.23	–
[4], 111.1 nM	2.45	–
[4], 333.3 nM	3.05	–
[4], 1000 nM	4.15	–
[4], 3000 nM	3.53	–
[5], 4.1 nM	2.53	–
[5], 12.3 nM	2.05	–
[5], 37 nM	3.22	–
[5], 111.1 nM	7.13	–
[5], 333.3 nM	6.28	–
[5], 1000 nM	6.68	–
[5], 3000 nM	8.42	–
[6], 4.1 nM	2.95	–
[6], 12.3 nM	3.49	–
[6], 37 nM	3.86	–
[6], 111.1 nM	6.48	–
[6], 333.3 nM	5.25	–
[6], 1000 nM	6.04	–
[6], 3000 nM	7.2	–
[7], 4.1 nM	2.88	–
[7], 12.3 nM	2.73	–
[7], 37 nM	2.37	–
[7], 111.1 nM	3.54	–
[7], 333.3 nM	3.91	–
[7], 1000 nM	4.92	–
[7], 3000 nM	3.6	–
[8], 4.1 nM	–	0.874
[8], 12.3 nM	–	0.885
[8], 37 nM	–	0.808
[8], 111.1 nM	–	0.646
[8], 333.3 nM	–	0.588
[8], 1000 nM	–	0.506
[8], 3000 nM	–	0.544
[9], 4.1 nM	–	0.613
[9], 12.3 nM	–	0.688
[9], 37 nM	–	0.648
[9], 111.1 nM	–	0.439
[9], 333.3 nM	–	0.459
[9], 1000 nM	–	0.386
[9], 3000 nM	–	0.39
[10], 4.1 nM	–	0.449
[10], 12.3 nM	–	0.418
[10], 37 nM	–	0.387
[10], 111.1 nM	–	0.387
[10], 333.3 nM	–	0.348
[10], 1000 nM	–	0.301
[10], 3000 nM	–	0.322
[11], 4.1 nM	–	0.769
[11], 12.3 nM	–	0.695
[11], 37 nM	–	0.644
[11], 111.1 nM	–	0.624
[11], 333.3 nM	–	0.503
[11], 1000 nM	–	0.414
[11], 3000 nM	–	0.501
[12], 4.1 nM	–	0.623
[12], 12.3 nM	–	0.679
[12], 37 nM	–	0.463
[12], 111.1 nM	–	0.205
[12], 333.3 nM	–	0.123
[12], 1000 nM	–	0.12
[12], 3000 nM	–	0.141
[13], 4.1 nM	–	0.459
[13], 12.3 nM	–	0.447
[13], 37 nM	–	0.372
[13], 111.1 nM	–	0.289
[13], 333.3 nM	–	0.207
[13], 1000 nM	–	0.205
[13], 3000 nM	–	0.274
[14], 4.1 nM	–	0.275
[14], 12.3 nM	–	0.237
[14], 37 nM	–	0.251
[14], 111.1 nM	–	0.163
[14], 333.3 nM	–	0.161
[14], 1000 nM	–	0.148
[14], 3000 nM	–	0.178

CCN(CC)Cc1ccc(C(=O)N(CCc2ccccc2OC)[C@@H]2CCNC2)cc1
Conditions	phenotypic distance	surviving fraction
[1], 4.1 nM	0.348	–
[1], 12.3 nM	0.837	–
[1], 37 nM	0.511	–
[1], 111.1 nM	0.773	–
[1], 333.3 nM	0.915	–
[1], 1000 nM	1.23	–
[1], 3000 nM	2.24	–
[2], 4.1 nM	0.583	–
[2], 12.3 nM	0.51	–
[2], 37 nM	0.826	–
[2], 111.1 nM	0.771	–
[2], 333.3 nM	0.874	–
[2], 1000 nM	0.721	–
[2], 3000 nM	4.84	–
[3], 4.1 nM	0.886	–
[3], 12.3 nM	0.664	–
[3], 37 nM	0.732	–
[3], 111.1 nM	0.746	–
[3], 333.3 nM	0.975	–
[3], 1000 nM	0.586	–
[3], 3000 nM	6.33	–
[4], 4.1 nM	0.768	–
[4], 12.3 nM	0.429	–
[4], 37 nM	0.97	–
[4], 111.1 nM	1.09	–
[4], 333.3 nM	1.04	–
[4], 1000 nM	0.887	–
[4], 3000 nM	1.55	–
[5], 4.1 nM	0.619	–
[5], 12.3 nM	0.993	–
[5], 37 nM	0.517	–
[5], 111.1 nM	0.737	–
[5], 333.3 nM	0.532	–
[5], 1000 nM	0.717	–
[5], 3000 nM	7.97	–
[6], 4.1 nM	0.354	–
[6], 12.3 nM	0.793	–
[6], 37 nM	0.496	–
[6], 111.1 nM	0.901	–
[6], 333.3 nM	4.65	–
[6], 1000 nM	0.624	–
[6], 3000 nM	4.48	–
[7], 4.1 nM	0.43	–
[7], 12.3 nM	0.532	–
[7], 37 nM	0.762	–
[7], 111.1 nM	0.583	–
[7], 333.3 nM	0.607	–
[7], 1000 nM	1.18	–
[7], 3000 nM	5.34	–
[8], 4.1 nM	–	0.944
[8], 12.3 nM	–	1.04
[8], 37 nM	–	0.955
[8], 111.1 nM	–	1.11
[8], 333.3 nM	–	1.21
[8], 1000 nM	–	1.35
[8], 3000 nM	–	1.18
[9], 4.1 nM	–	0.904
[9], 12.3 nM	–	1.11
[9], 37 nM	–	1.04
[9], 111.1 nM	–	1.12
[9], 333.3 nM	–	1.03
[9], 1000 nM	–	1.13
[9], 3000 nM	–	0.601
[10], 4.1 nM	–	1.08
[10], 12.3 nM	–	0.868
[10], 37 nM	–	0.939
[10], 111.1 nM	–	0.916
[10], 333.3 nM	–	0.929
[10], 1000 nM	–	0.865
[10], 3000 nM	–	0.251
[11], 4.1 nM	–	0.806
[11], 12.3 nM	–	1
[11], 37 nM	–	0.941
[11], 111.1 nM	–	1.12
[11], 333.3 nM	–	1.05
[11], 1000 nM	–	0.786
[11], 3000 nM	–	0.859
[12], 4.1 nM	–	1.16
[12], 12.3 nM	–	1.03
[12], 37 nM	–	1.08
[12], 111.1 nM	–	1.03
[12], 333.3 nM	–	1.06
[12], 1000 nM	–	1.05
[12], 3000 nM	–	0.433
[13], 4.1 nM	–	0.952
[13], 12.3 nM	–	0.993
[13], 37 nM	–	1
[13], 111.1 nM	–	0.952
[13], 333.3 nM	–	0.919
[13], 1000 nM	–	0.996
[13], 3000 nM	–	0.663
[14], 4.1 nM	–	1.06
[14], 12.3 nM	–	1.02
[14], 37 nM	–	1.01
[14], 111.1 nM	–	1.19
[14], 333.3 nM	–	0.914
[14], 1000 nM	–	1.11
[14], 3000 nM	–	0.62

— the supplement of paper PMC13207355
